Patent publication US7109193B2, “Tricyclic diazepines tocolytic oxytocin receptor antagonists” (Wyeth, priority 2001, dated 2006)
Structures can show the parent of a compound that is named as a salt.

Biological target: T1, human oxytocin receptor (Homo sapiens, UniProt P30559)
T1 construct: host or cells: CHO cells (pcDNA3.1 vector)
T1 sequence (P30559 1-389): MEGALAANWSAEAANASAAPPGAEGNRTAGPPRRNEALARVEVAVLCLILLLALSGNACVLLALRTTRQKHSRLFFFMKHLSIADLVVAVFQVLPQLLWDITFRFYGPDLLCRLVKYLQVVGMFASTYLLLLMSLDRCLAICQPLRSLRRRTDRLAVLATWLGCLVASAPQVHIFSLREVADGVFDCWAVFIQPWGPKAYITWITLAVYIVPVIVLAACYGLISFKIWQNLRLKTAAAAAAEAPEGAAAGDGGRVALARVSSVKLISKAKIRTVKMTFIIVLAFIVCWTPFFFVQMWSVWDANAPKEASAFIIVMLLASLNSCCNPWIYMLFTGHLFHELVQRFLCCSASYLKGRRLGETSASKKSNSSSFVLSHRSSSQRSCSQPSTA
Assay: Oxytocin binding in Chinese Hamster Ovary cell membranes expressing human oxytocin receptors
Conditions: CHO cell membranes, [3H]oxytocin; for inhibition at 0.1 µM: 100 nM, values without parentheses, read-out: OT % inhibition @ 100% nM; for IC50: values in parentheses, read-out: OT (IC50)

inhibition at 0.1 µM | IC50 | Compound
– | 3.66 nM | COc1ccccc1-c1ccc(C(=O)N2Cc3ccc(C(=O)N4CCN(CCN5CCOCC5)CC4)n3Cc3ccccc32)cc1C [Example 206, {10-[(2′-Methoxy-2-methyl[1,1′-biphenyl]-4-yl)carbonyl]-10,11-dihydro-5H-pyrrolo[2,1-c][1,4]benzodiazepin-3-yl}{4-[2-(4-morpholinyl)ethyl]-1-piperazinyl}methanone]
– | 7.19 nM | COc1cc(-c2ccccc2C)c(Cl)cc1C(=O)N1Cc2ccc(C(=O)N3CCC(N4CCCC4)CC3)n2Cc2ccccc21 [Example 136, {10-[(6-Chloro-3-methoxy-2′-methyl[1,1′-biphenyl]-4-yl)carbonyl]-10,11-dihydro-5H-pyrrolo[2,1-c][1,4]benzodiazepin-3-yl}[4-(1-pyrrolidinyl)-1-piperidinyl]methanone]
– | 2.48 nM | COc1cc(-c2ccccc2C)c(Cl)cc1C(=O)N1Cc2ccc(C(=O)N(C)CCCN(C)C)n2Cc2ccccc21 [Example 98, 10-[(6-Chloro-3-methoxy-2′-methyl[1,1′-biphenyl]-4-yl)carbonyl]-N-[3-(dimethylamino)propyl]-N-methyl-10,11-dihydro-5H-pyrrolo[2,1-c][1,4]benzodiazepine-3-carboxamide]
– | 9.5 nM | COc1ccccc1-c1ccc(C(=O)N2Cc3ccc(C(=O)N4CCN(CCN5CCOCC5)CC4)n3Cc3ccccc32)cc1 [Example 207, {10-[(2′-Methoxy[1,1′-biphenyl]-4-yl)carbonyl]-10,11-dihydro-5H-pyrrolo[2,1-c][1,4]benzodiazepin-3-yl}{4-[2-(4-morpholinyl)ethyl]-1-piperazinyl}methanone]
54% | – | CN(C)CCN(C)C(=O)c1ccc2n1Cc1ccccc1N(C(=O)c1ccc(-c3cccc4ccccc34)cc1Cl)C2 [Example 96, 10-[2-Chloro-4-(1-naphthyl)benzoyl]-N-[2-(dimethylamino)ethyl]-N-methyl-10,11-dihydro-5H-pyrrolo[2,1-c][1,4]benzodiazepine-3-carboxamide]
95% | – | COc1cccc(-c2ccc(C(=O)N3Cc4ccc(C(=O)N(C)CCCN(C)C)n4Cc4ccccc43)cc2C)c1 [Example 102, N-[3-(Dimethylamino)propyl]-10-[(3′-methoxy-2-methyl[1,1′-biphenyl]-4-yl)carbonyl]-N-methyl-10,11-dihydro-5H-pyrrolo[2,1-c][1,4]benzodiazepine-3-carboxamide]
88% | – | COc1cc(C(=O)N2Cc3ccc(C(=O)N(C)CCCN(C)C)n3Cc3ccccc32)ccc1-c1cccc2ccccc12 [Example 106, N-[3-(Dimethylamino)propyl]-10-[3-methoxy-4-(1-naphthyl)benzoyl]-N-methyl-10,11-dihydro-5H-pyrrolo[2,1-c][1,4]benzodiazepine-3-carboxamide]
97% | – | COc1cc(C(=O)N2Cc3ccc(C(=O)N(C)CCCN(C)C)n3Cc3ccccc32)ccc1-c1ccccc1C [Example 105, N-[3-(Dimethylamino)propyl]-10-[(2-methoxy-2′-methyl[1,1′-biphenyl]-4-yl)carbonyl]-N-methyl-10,11-dihydro-5H-pyrrolo[2,1-c][1,4]benzodiazepine-3-carboxamide]
– | 17.8 nM | COc1ccccc1-c1ccc(C(=O)N2Cc3ccc(C(=O)N4CCN(CCCN(C)C)CC4)n3Cc3ccccc32)cc1 [Example 246, {4-[3-(Dimethylamino)propyl]-1-piperazinyl}{10-[(2′-methoxy[1,1′-biphenyl]-4-yl)carbonyl]-10,11-dihydro-5H-pyrrolo[2,1-c][1,4]benzodiazepin-3-yl}methanone]
– | 2.04 nM | COc1cccc(-c2cc(OC)c(C(=O)N3Cc4ccc(C(=O)N(C)CCCN(C)C)n4Cc4ccccc43)cc2Cl)c1 [Example 99, 10-[(6-Chloro-3,3′-dimethoxy[1,1′-biphenyl]-4-yl)carbonyl]-N-[3-(dimethylamino)propyl]-N-methyl-10,11-dihydro-5H-pyrrolo[2,1-c][1,4]benzodiazepine-3-carboxamide]
– | 3.84 nM | COc1ccccc1-c1ccc(C(=O)N2Cc3ccc(C(=O)N4CCN(CCN(C)C)CC4)n3Cc3ccccc32)cc1C [Example 195, {4-[2-(Dimethylamino)ethyl]-1-piperazinyl}{10-[(2′-methoxy-2-methyl[1,1′-biphenyl]-4-yl)carbonyl]-10,11-dihydro-5H-pyrrolo[2,1-c][1,4]benzodiazepin-3-yl}methanone]

More lines, now with the values behind:

Compound | inhibition at 0.1 µM | IC50
COc1ccccc1-c1ccc(C(=O)N2Cc3ccc(C(=O)N(C)CCN(C)C)n3Cc3ccccc32)cc1C [Example 88, N-[2-(Dimethylamino)ethyl]-10-[(2′-methoxy-2-methyl[1,1′-biphenyl]-4-yl)carbonyl]-N-methyl-10,11-dihydro-5H-pyrrolo[2,1-c][1,4]benzodiazepine-3-carboxamide] | 98% | –
CN(C)CCCNC(=O)c1ccc2n1Cc1ccccc1N(C(=O)c1ccc(-c3cccc4ccccc34)cc1Cl)C2 [Example 83, 10-[2-Chloro-4-(1-naphthyl)benzoyl]-N-[3-(dimethylamino)propyl]-10,11-dihydro-5H-pyrrolo[2,1-c][1,4]benzodiazepine-3-carboxamide] | 10% | –
COc1cc(-c2ccccc2C(F)(F)F)c(OC)cc1C(=O)N1Cc2cccn2Cc2ccccc21 [Example 32, 10-{[3,6-Dimethoxy-2′-trifluoromethyl-[1,1′-biphenyl]-4-yl]carbonyl}-10,11-dihydro-5H-pyrrolo[2,1-c][1,4]benzodiazepine] | – | 185 nM
COc1cccc(-c2ccc(C(=O)N3Cc4ccc(C(=O)NCCCN(C)C)n4Cc4ccccc43)cc2OC)c1 [Example 82, 10-[(2,3′-Dimethoxy[1,1′-biphenyl]-4-yl)carbonyl]-N-[3-(dimethylamino)propyl]-10,11-dihydro-5H-pyrrolo[2,1-c][1,4]benzodiazepine-3-carboxamide] | 50% | –
COc1cc(C(=O)N2Cc3ccc(C(=O)N(C)CCN(C)C)n3Cc3ccccc32)ccc1-c1ccccc1C(F)(F)F [Example 22, N-Methyl-[N-(2-dimethylamino)ethyl]-10-{[2-methoxy-2′-trifluoromethyl-[1,1′-biphenyl]-4-yl]carbonyl}-10,11-dihydro-5H-pyrrolo[2,1-c][1,4]benzodiazepine-3-carboxamide] | – | 1.74 nM
COc1cc(-c2ccccc2Cl)c(Cl)cc1C(=O)N1Cc2ccc(C(=O)N(C)C3CCN(C)CC3)n2Cc2ccccc21 [Example 43, 10-[(2′-Chloro-6-chloro-3-methoxy-[1,1′-biphenyl]-4-yl)carbonyl]-N-methyl-N-(1-methylpiperidin-4-yl)-10,11-dihydro-5H-pyrrolo[2,1-c][1,4]benzodiazepine-3-carboxamide] | – | 1.66 nM
COc1ccccc1-c1ccc(C(=O)N2Cc3ccc(C(=O)NCCCN(C)C)n3Cc3ccccc32)cc1OC [Example 81, 10-[(2,2′-Dimethoxy[1,1′-biphenyl]-4-yl)carbonyl]-N-[3-(dimethylamino)propyl]-10,11-dihydro-5H-pyrrolo[2,1-c][1,4]benzodiazepine-3-carboxamide] | 43% | –
Cc1cc(C(=O)N2Cc3ccc(C(=O)N4CCN(C)CC4)n3Cc3ccccc32)ccc1-c1ccccc1C(F)(F)F [Example 2, (4-Methyl-piperazin-1-yl)-[10-(2-methyl-2′-trifluoromethyl-[1,1′-biphenyl]-4-yl)-carbonyl]-10,11-dihydro-5H-pyrrolo[2,1-c][1,4]benzodiazepin-3-yl-methanone] | – | 12.5 nM
Cc1cc(C(=O)N2Cc3ccc(C(=O)NC(=N)N)n3Cc3ccccc32)ccc1-c1ccccc1C(F)(F)F [Example 8, N-[(10-{[2-methyl-2′-(trifluoromethyl)[1,1′-biphenyl]-4-yl]carbonyl}-10,11-dihydro-5H-pyrrolo[2,1-c][1,4]benzodiazepin-3-yl)carbonyl]guanidine] | – | 6.37 nM
COc1ccccc1-c1ccc(C(=O)N2Cc3ccc(C(=O)N4CCCN(C)CC4)n3Cc3ccccc32)cc1 [Example 61, {10-[(2′-Methoxy[1,1′-biphenyl]-4-yl)carbonyl]-10,11-dihydro-5H-pyrrolo[2,1-c][1,4]benzodiazepin-3-yl}(4-methyl-1,4-diazepan-1-yl)methanone] | – | 4.5 nM
Cc1cc(C(=O)N2Cc3ccc(C(=O)N4CCNCC4)n3Cc3ccccc32)ccc1-c1ccccc1C(F)(F)F [Example 7, 10,11-Dihydro-10-[[2-methyl-2′-trifluoromethyl-[1,1′-biphenyl]-4-yl]carbonyl]-3-(1-piperazinylcarbonyl)-5H-pyrrolo[2,1-c][1,4]benzodiazepine hydrochloride salt] | – | 11.4 nM
COc1cc(C(=O)N2Cc3cccn3Cc3ccccc32)ccc1-n1c(C)ccc1C [Example 27, [4-(2,5-Dimethyl-1-H-pyrrol-1-yl)-3-methoxy-phenyl][10,11-dihydro-5H-pyrrolo[2,1-c][1,4]benzodiazepin-10-yl]methanone] | – | 18.1 nM
COc1ccccc1-c1ccc(C(=O)N2Cc3ccc(C(=O)N4CCN(C)CC4)n3Cc3ccccc32)cc1 [Example 48, {10-[(2′-Methoxy[1,1′-biphenyl]-4-yl)carbonyl]-10,11-dihydro-5H-pyrrolo[2,1-c][1,4]benzodiazepin-3-yl}(4-methyl-1-piperazinyl)methanone] | – | 6.7 nM
O=C(c1ccc(-c2cccc3ccccc23)cc1Cl)N1Cc2cccn2Cc2ccccc21 [Example 24, [2-Chloro-4-(naphthalen-1-yl)phenyl][10,11-dihydro-5H-pyrrolo[2,1-c][1,4]benzodiazepin-10-yl]methanone] | – | 8 nM
